{
  "source": "patent US12171230B2",
  "about": "“Herbicidal compositions” (Bayer Aktiengesellschaft, priority 2018, dated 2024)",
  "format_in_all_cases": "in vivo",
  "key": {"Lamium purpureum": {"tested_on": "Lamium purpureum", "experiment": "Post-emergence herbicidal action against Lamium purpureum", "summary_of_the_method": "(§1)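 Seeds or rhizome pieces were grown in sandy loam in pots in a greenhouse, and plants were sprayed at the three-leaf stage, three weeks after sowing. Spray powders or emulsion concentrates were applied in various dosages at 300 to 800 l/ha water. Efficacy was scored visually after 3 to 4 weeks against untreated controls.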"}, "Amaranthus palmeri": {"tested_on": "Amaranthus palmeri", "experiment": "Post-emergence herbicidal action against Amaranthus palmeri", "summary_of_the_method": "as §1"}, "Bidens pilosa": {"tested_on": "Bidens pilosa", "experiment": "Post-emergence herbicidal action against Bidens pilosa", "conditions": "for Herbicidal action: 21 DAT", "summary_of_the_method": "as §1"}, "Sorghum halepense": {"tested_on": "Sorghum halepense", "experiment": "Post-emergence herbicidal action against Sorghum halepense", "conditions": "for Herbicidal action: 21 DAT", "experimental": "(§2) When the observed efficacies exceed the formal sum total of the values of the tests with individual applications, they also exceed the expected value according to Colby, which is calculated using the formula below and is likewise regarded as an indication of synergism (cf. S. R. Colby; in Weeds 15 (1967) p. 20 to 22): E^C=A+B−([…])\n(§3) Here: • A=efficacy of the active compound (A) in % at an application rate of a g a.i./ha; • B=efficacy of the active compound (B) in % at an application rate of b g a.i./ha; • E^C=expected value of the effect of the combination (A)+(B) in % at the combined application rate a+b g a.i./ha.\n(§4) Seeds or rhizome pieces of mono- and dicotyledonous weeds are placed in sandy loam in pots, covered with soil and grown in a greenhouse under good growth conditions (temperature, air humidity, water supply). Three weeks after sowing, the test plants were treated at the three-leaf stage with the compositions according to the invention. The compositions according to the invention formulated as spray powders or as emulsion concentrates were sprayed onto the green plant parts in various dosages with an application rate of 300 to 800 l/ha of water (equivalent). After the test plants have been left to stand in the greenhouse under optimal growth conditions for about 3 to 4 weeks, the action of the preparations is scored visually in comparison to untreated controls. The compositions according to the invention also have good post-emergence herbicidal activity against a broad spectrum of economically important gramineous and broadleaf weeds."}, "Digitaria sanguinalis": {"tested_on": "Digitaria sanguinalis", "experiment": "Post-emergence herbicidal action against Digitaria sanguinalis", "summary_of_the_method": "as §1"}, "Poa annua": {"tested_on": "Poa annua", "experiment": "Post-emergence herbicidal action against Poa annua", "summary_of_the_method": "as §1"}, "Centaurea cyano": {"tested_on": "Centaurea cyano", "experiment": "Post-emergence herbicidal action against Centaurea cyano", "summary_of_the_method": "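Greenhouse pot-grown plants sprayed post-emergence at the three-leaf stage, three weeks after sowing, with spray-powder or emulsion-concentrate formulations at various dosages in 300 to 800 l/ha water on green parts.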"}, "Matricaria inodora": {"tested_on": "Matricaria inodora", "experiment": "Post-emergence herbicidal action against Matricaria inodora"}, "Echinochloa crus-galli": {"tested_on": "Echinochloa crus-galli", "experiment": "Post-emergence herbicidal action against Echinochloa crus-galli", "conditions": "21 DAT; 50 g a.i./ha", "experimental": "as §2, §3, §4"}, "Kochia scoparia": {"tested_on": "Kochia scoparia", "experiment": "Post-emergence herbicidal action against Kochia scoparia", "conditions": "21 DAT"}, "Polygonum convolvulus": {"tested_on": "Polygonum convolvulus", "experiment": "Post-emergence herbicidal action against Polygonum convolvulus", "conditions": "21 DAT; 50 g a.i./ha"}, "Bromus sterilis": {"tested_on": "Bromus sterilis", "experiment": "Post-emergence herbicidal action against Bromus sterilis"}, "Lolium rigidum": {"tested_on": "Lolium rigidum", "experiment": "Post-emergence herbicidal action against Lolium rigidum"}, "Phalaris minor": {"tested_on": "Phalaris minor", "experiment": "Post-emergence herbicidal action against Phalaris minor"}, "Alopecurus myosuroides": {"tested_on": "Alopecurus myosuroides", "experiment": "Post-emergence herbicidal action against Alopecurus myosuroides"}, "Veronica hederifolia": {"tested_on": "Veronica hederifolia", "experiment": "Post-emergence herbicidal action against Veronica hederifolia", "conditions": "28 DAT; 450 g a.i./ha"}, "Brachiaria platyphylla": {"tested_on": "Brachiaria platyphylla", "experiment": "Post-emergence herbicidal action against Brachiaria platyphylla", "experimental": "as §2, §3, §4"}, "Abutilon theophrasti": {"tested_on": "Abutilon theophrasti", "experiment": "Post-emergence herbicidal action against Abutilon theophrasti", "conditions": "75 g of a.i./ha"}, "Ipomoea ssp.": {"tested_on": "Ipomoea ssp.", "experiment": "Post-emergence herbicidal action against Ipomoea ssp.", "conditions": "45 DAT"}, "Lysimachia nummularia": {"tested_on": "Lysimachia nummularia", "experiment": "Post-emergence herbicidal action against Lysimachia nummularia", "conditions": "45 DAT; 720 g a.i./ha"}, "Malva pusilia": {"tested_on": "Malva pusilia", "experiment": "Post-emergence herbicidal action against Malva pusilia", "conditions": "42 DAT; 720 g a.i./ha"}},
  "note": "“And” between values parts separate entries of the source, which are not always exact repeats. Identical values can stand only once.",
  "data": [
    {"smiles": "O=C(O)CNCP(=O)(O)O", "note": "[(B7.5) Glyphosate]", "values": [
      {"measurement": "Herbicidal action", "setting": "Lamium purpureum; 14 DAT, 50 g a.i./ha", "result": 50, "unit": "%"},
      {"measurement": "Herbicidal action", "setting": "Lamium purpureum; 28 DAT, 50 g a.i./ha", "result": 30, "unit": "%"},
      {"measurement": "Herbicidal action", "setting": "Lamium purpureum; 28 DAT, 150 g a.i./ha", "result": 40, "unit": "%"},
      {"measurement": "Herbicidal action", "setting": "Lamium purpureum; 28 DAT, 450 g a.i./ha", "result": 75, "unit": "%"},
      {"measurement": "Herbicidal action", "setting": "Amaranthus palmeri; 21 DAT, (res.), 50 g a.i./ha", "result": 60, "unit": "%"},
      {"measurement": "Herbicidal action", "setting": "Bidens pilosa; 150 g a.i./ha", "result": 75, "unit": "%"},
      {"measurement": "Herbicidal action", "setting": "Bidens pilosa; 450 g a.i./ha", "result": 85, "unit": "%"},
      {"measurement": "Herbicidal action", "setting": "Sorghum halepense; 50 g a.i./ha", "result": 30, "unit": "%"},
      {"measurement": "Herbicidal action", "setting": "Sorghum halepense; 150 g a.i./ha", "result": 70, "unit": "%"},
      {"measurement": "Herbicidal action", "setting": "Sorghum halepense; 450 g a.i./ha", "result": 85, "unit": "%"},
      {"measurement": "Herbicidal action", "setting": "Digitaria sanguinalis; 21 DAT, 50 g a.i./ha", "result": 80, "unit": "%"},
      {"measurement": "Herbicidal action", "setting": "Poa annua; 14 DAT, 50 g a.i./ha", "result": 20, "unit": "%"},
      {"measurement": "Herbicidal action", "setting": "Poa annua; 28 DAT, 50 g a.i./ha", "result": 30, "unit": "%"},
      {"measurement": "Herbicidal action", "setting": "Poa annua; 28 DAT, 150 g a.i./ha", "result": "50% and 60%"},
      {"measurement": "Herbicidal action", "setting": "Poa annua; 28 DAT, 450 g a.i./ha", "result": 60, "unit": "%"},
      {"measurement": "Herbicidal action", "setting": "Centaurea cyano; 14 DAT, 50 g a.i./ha", "result": 30, "unit": "%"},
      {"measurement": "Herbicidal action", "setting": "Centaurea cyano; 14 DAT, 150 g a.i./ha", "result": 60, "unit": "%"},
      {"measurement": "Herbicidal action", "setting": "Centaurea cyano; 28 DAT, 50 g a.i./ha", "result": 30, "unit": "%"},
      {"measurement": "Herbicidal action", "setting": "Centaurea cyano; 28 DAT, 150 g a.i./ha", "result": 60, "unit": "%"},
      {"measurement": "Herbicidal action", "setting": "Centaurea cyano; 28 DAT, 450 g a.i./ha", "result": 85, "unit": "%"},
      {"measurement": "Herbicidal action", "setting": "Matricaria inodora; 14 DAT, 50 g a.i./ha", "result": "40% and 50%"},
      {"measurement": "Herbicidal action", "setting": "Matricaria inodora; 28 DAT, 450 g a.i./ha", "result": 80, "unit": "%"},
      {"measurement": "Herbicidal action", "setting": "Echinochloa crus-galli", "result": 45, "unit": "%"},
      {"measurement": "Herbicidal action", "setting": "Kochia scoparia; 50 g a.i./ha", "result": 35, "unit": "%"},
      {"measurement": "Herbicidal action", "setting": "Kochia scoparia; 150 g a.i./ha", "result": 20, "unit": "%"},
      {"measurement": "Herbicidal action", "setting": "Polygonum convolvulus", "result": 10, "unit": "%"},
      {"measurement": "Herbicidal action", "setting": "Bromus sterilis; 14 DAT, 50 g a.i./ha", "result": 30, "unit": "%"},
      {"measurement": "Herbicidal action", "setting": "Bromus sterilis; 28 DAT, 150 g a.i./ha", "result": 40, "unit": "%"},
      {"measurement": "Herbicidal action", "setting": "Lolium rigidum; 14 DAT, 50 g a.i./ha", "result": 40, "unit": "%"},
      {"measurement": "Herbicidal action", "setting": "Lolium rigidum; 14 DAT, resistant biotype, 50 g a.i./ha", "result": 20, "unit": "%"},
      {"measurement": "Herbicidal action", "setting": "Lolium rigidum; 28 DAT, 50 g a.i./ha", "result": 30, "unit": "%"},
      {"measurement": "Herbicidal action", "setting": "Lolium rigidum; 28 DAT, 150 g a.i./ha", "result": 60, "unit": "%"},
      {"measurement": "Herbicidal action", "setting": "Phalaris minor; 14 DAT, 50 g a.i./ha", "result": 30, "unit": "%"},
      {"measurement": "Herbicidal action", "setting": "Phalaris minor; 14 DAT, 450 g a.i./ha", "result": 80, "unit": "%"},
      {"measurement": "Herbicidal action", "setting": "Phalaris minor; 28 DAT, 450 g a.i./ha", "result": 30, "unit": "%"},
      {"measurement": "Herbicidal action", "setting": "Alopecurus myosuroides; 14 DAT, 50 g a.i./ha", "result": 30, "unit": "%"},
      {"measurement": "Herbicidal action", "setting": "Alopecurus myosuroides; 28 DAT, 50 g a.i./ha", "result": 10, "unit": "%"},
      {"measurement": "Herbicidal action", "setting": "Alopecurus myosuroides; 28 DAT, 150 g a.i./ha", "result": 30, "unit": "%"},
      {"measurement": "Herbicidal action", "setting": "Alopecurus myosuroides; 28 DAT, 450 g a.i./ha", "result": 60, "unit": "%"},
      {"measurement": "Herbicidal action", "setting": "Veronica hederifolia", "result": 90, "unit": "%"}
    ]},
    {"smiles": "CS(=O)(=O)c1cc(C(F)(F)F)ccc1C(=O)c1cnoc1C1CC1", "note": "[(B4.18) Isoxaflutole]", "values": [
      {"measurement": "pest or weed control at 5 g/ha", "setting": "Amaranthus palmeri; Amaranthus palmeri, post-emergence, 504 h, 5 g of a.i./ha, read-out: Herbicidal action 21 DAT [%] against Amaranthus palmeri", "result": 10, "unit": "%"},
      {"measurement": "pest or weed control at 15 g/ha", "setting": "Amaranthus palmeri; Amaranthus palmeri, post-emergence, 504 h, 15 g of a.i./ha, read-out: Herbicidal action 21 DAT [%] against Amaranthus palmeri", "result": 10, "unit": "%"},
      {"measurement": "pest or weed control at 45 g/ha", "setting": "Amaranthus palmeri; Amaranthus palmeri, post-emergence, 504 h, 45 g of a.i./ha, read-out: Herbicidal action 21 DAT [%] against Amaranthus palmeri", "result": 20, "unit": "%"},
      {"measurement": "Herbicidal action 21 DAT [%] against Bidens pilosa", "setting": "Bidens pilosa; 5 g of a.i./ha", "result": 20, "unit": "%"},
      {"measurement": "Herbicidal action 21 DAT [%] against Bidens pilosa", "setting": "Bidens pilosa; 45 g of a.i./ha", "result": 60, "unit": "%"},
      {"measurement": "Herbicidal action 21 DAT [%] against Brachiaria platyphylla", "setting": "Brachiaria platyphylla; 15 g of a.i./ha", "result": 20, "unit": "%"},
      {"measurement": "Herbicidal action 21 DAT [%] against Brachiaria platyphylla", "setting": "Brachiaria platyphylla; 45 g of a.i./ha", "result": 30, "unit": "%"},
      {"measurement": "Herbicidal action 21 DAT [%] against Sorghum halepense", "setting": "Sorghum halepense; 45 g of a.i./ha", "result": 60, "unit": "%"},
      {"measurement": "Herbicidal action 21 DAT [%] against Digitaria sanguinalis", "setting": "Digitaria sanguinalis; 15 g of a.i./ha", "result": 10, "unit": "%"},
      {"measurement": "Herbicidal action 21 DAT [%] against Digitaria sanguinalis", "setting": "Digitaria sanguinalis; 45 g of a.i./ha", "result": 25, "unit": "%"},
      {"measurement": "Herbicidal action 37 DAT [%] against Abutilon theophrasti", "setting": "Abutilon theophrasti", "result": 58, "unit": "%"}
    ]},
    {"smiles": "O=C(O)CNCP(=O)(O)O", "note": "[(B7.5) Glyphosate (CAS 39600-42-5)]", "values": [
      {"measurement": "Herbicidal action", "setting": "Amaranthus palmeri; 16 DAT, 1440 g a.i./ha", "result": 2, "unit": "%"},
      {"measurement": "Herbicidal action", "setting": "Ipomoea ssp.; 720 g a.i./ha", "result": 0, "unit": "%"},
      {"measurement": "Herbicidal action", "setting": "Ipomoea ssp.; 1440 g a.i./ha", "result": 0, "unit": "%"},
      {"measurement": "Herbicidal action", "setting": "Lysimachia nummularia", "result": 7, "unit": "%"},
      {"measurement": "Herbicidal action", "setting": "Malva pusilia", "result": 0, "unit": "%"}
    ]}
  ]
}
